Reference: publication PMC11555261, “Targeting USP11 regulation by a novel lithium-organic coordination compound improves neuropathologies and cognitive functions in Alzheimer transgenic mice” (EMBO Molecular Medicine, 2024)

Target: T1, USP11 (recombinant USP11 protein) (Homo sapiens, UniProt P51784)
T1 construct: commercial recombinant human protein from Sf9 insect cells; His tag implied by RED-tris-NTA labelling
Assay: microscale thermophoresis
Type: binding

T1 sequence (P51784 whole entry): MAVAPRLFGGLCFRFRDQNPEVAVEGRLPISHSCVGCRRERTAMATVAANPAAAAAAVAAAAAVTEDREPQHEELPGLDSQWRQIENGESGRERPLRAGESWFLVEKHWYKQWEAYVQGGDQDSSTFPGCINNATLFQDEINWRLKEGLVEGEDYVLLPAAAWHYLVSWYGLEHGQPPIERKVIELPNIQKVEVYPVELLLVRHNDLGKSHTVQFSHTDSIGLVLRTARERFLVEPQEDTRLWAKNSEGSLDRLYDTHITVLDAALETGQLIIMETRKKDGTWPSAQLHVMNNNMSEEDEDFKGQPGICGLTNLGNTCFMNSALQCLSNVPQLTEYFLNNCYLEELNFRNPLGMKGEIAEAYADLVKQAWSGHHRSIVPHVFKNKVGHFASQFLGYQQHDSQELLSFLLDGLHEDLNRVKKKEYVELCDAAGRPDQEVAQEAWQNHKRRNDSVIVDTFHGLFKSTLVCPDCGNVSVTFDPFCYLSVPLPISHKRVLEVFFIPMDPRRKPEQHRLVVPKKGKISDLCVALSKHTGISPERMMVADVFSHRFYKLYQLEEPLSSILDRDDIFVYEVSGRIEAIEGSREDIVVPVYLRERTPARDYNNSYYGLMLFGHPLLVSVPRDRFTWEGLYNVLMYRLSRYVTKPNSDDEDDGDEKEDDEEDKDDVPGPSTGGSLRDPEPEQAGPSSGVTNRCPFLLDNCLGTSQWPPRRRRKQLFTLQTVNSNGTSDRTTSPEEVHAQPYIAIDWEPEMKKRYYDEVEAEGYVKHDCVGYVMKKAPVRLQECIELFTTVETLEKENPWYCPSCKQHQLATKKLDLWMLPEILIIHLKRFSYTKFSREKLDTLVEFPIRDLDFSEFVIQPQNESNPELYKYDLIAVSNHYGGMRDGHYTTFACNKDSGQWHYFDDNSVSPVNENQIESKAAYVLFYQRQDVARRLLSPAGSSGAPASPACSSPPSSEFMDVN

Kd: 43.4 µM
Compound: O=C(O)[C@@H]1CCCN1 [IsoLiPro]
